We go through 2 compounds from patent publication US20190029975A1, “TOCOPHEROL AND TOCOTRIENOL QUINONE DERIVATIVES FOR INCREASING THIOSULFATE LEVELS OR DECREASING HYDROGEN SULFIDE LEVELS” (BIOELECTRON TECHNOLOGY CORPORATION, priority 2016, published 2019).

Assay [1] relates to mouse striatal cells (Q7). Briefly: Thiosulfate production in EPI-743 treated ATG-stressed Q7 cells. The settings on record: for effect on cysteine levels: Q7 cells, 10 μM ATG or 100 nM EPI-743; for Cysteine Calculated Concentration / Thiosulfate Peak Area: 100 nM 743. Type of assay: cell-based. The procedure: Conditionally immortalized wild-type mouse striatal cells (Q7, passage #45) were seeded at 300,000 cells per well in 6-well plates containing 3 mL/well of DMEM (High Glucose) containing 10% FBS, penicillin/streptomycin, and 400 μg/mL G418. After an overnight incubation at 33C, the cells were treated for 4-5 hours with either EPI-743 (100 nM final concentration) or DMSO vehicle (1% final concentration). Aurothioglucose (final concentration 10 μM) was added prior to an 18-hour treatment period. Cells were washed 1× with Hanks' buffered saline solution (HBSS), counted, and then resuspended in monobromobimane capping solution.
Cysteine and thiosulfate levels are shown below. Aurothioglucose (ATG) is an inhibitor of thioredoxin reductase-1 and has been repeatedly used as a tool compound to increase oxidative stress. […] Cysteine levels were unaffected by ATG or EPI-743 treatment.

Assay [2] is described as follows: Plasma thiosulfate in Leigh Syndrome patients treated with EPI-743 (EPI743-12-002 Leigh Trial). It is filed as in vivo, human. The procedure: As part of the Edison EPI743-12-002 Leigh Trial, 17 Leigh Syndrome patients were treated with EPI-743 (15 mg/kg up to 200 mg three times a day) for 12 months. An additional 14 Leigh Syndrome patients received placebo for the first six months, and were randomized to either 5 or 15 mg/kg up to 200 mg three times a day EPI-743 for the subsequent six months.
Plasma thiosulfate concentrations were measured at various time points, over a 12 month period, for patients on drug and placebo. Plasma samples were collected from Leigh Syndrome patients, and the samples processed according to the procedure described in Example 2. […]
(§1) The samples were analyzed by measuring the absolute concentration of H2S, thiosulfate, and glutathione persulfide using 6-point calibration curves. […]
(§2) An API mass spectrometer (AB6500 Qtrap) coupled to a high performance liquid chromatograph (Eksigent MicroLC 200 Plus) was used to quantify H2S, thiosulfate, and glutathione persulfide and their internal standards from all biological fluids and calibrants. […]
Bromobimane (BB) and Bromobimane internal standard (B-IS) were injected before each calibration curve. […] Statistical calculations and analytical run acceptance were determined based on criteria set forth in the FDA/EMA guidance where applicable. Fundamental parameters such as accuracy, precision, selectivity, sensitivity, reproducibility, and stability were monitored.

Assay [3] deals with SQOR products (thiosulfate, glutathione persulfide). Briefly: Correlation of plasma H2S with the SQOR products thiosulfate and glutathione persulfide in Leigh Syndrome patients. Type of assay: in vivo, human. The settings on record: all subjects at all time points. The procedure:
A quantitative method for the analysis of H2S, thiosulfate, and glutathione persulfide in biological matrices via liquid chromatography coupled to atmospheric pressure ionization (API) tandem mass spectrometry (LC-MS/MS) is provided.
Patient plasma samples were collected with informed consent from the patients described in Example 1. The sulfur containing compounds were derivatized with bromo bimane to stabilize the samples for measurement. Samples were stored at −80° C. and shipped for analysis to Edison under dry ice.
as §1, §2
Bromobimane (BB) and Bromobimane internal standard (B-IS) were injected before each calibration curve. […] Statistical calculations and analytical run acceptance were determined based on criteria set forth in the FDA/EMA guidance where applicable. Fundamental parameters such as accuracy, precision, selectivity, sensitivity, reproducibility, and stability were monitored. […]

For the compound `OC[C@H]1O[C@H]([S-])[C@H](O)[C@@H](O)[C@@H]1O.[Au+]` [ATG, Aurothioglucose, reference compound], the “effect on cysteine levels” value in assay [1] was “unaffected”.

As to `CC(C)=CCC/C(C)=C/CC/C(C)=C/CC[C@@](C)(O)CCC1=C(C)C(=O)C(C)=C(C)C1=O` [EPI-743], in assay [2] (Leigh Syndrome patients, across all time points over 12 months, versus baseline, placebo virtually no change), the “increase in mean plasma thiosulfate” value is given as “greater than 100%”. In addition, the mean plasma thiosulfate in assay [2] (subjects treated with EPI-743, across all time points, baseline 0.21 μM) is 0.54 µM. Also, the “H2S/glutathione persulfide ratio versus untreated patients” value in assay [3] is on record as “lower”. Besides, the “H2S/thiosulfate ratio versus untreated patients” value in assay [3] is recorded as “lower”. Also, the “Cysteine Calculated Concentration” value is 0.281 µM in assay [1] (10 μM ATG, 1% DMSO control 0.272) and 0.264 µM in assay [1] (No Stress, 1% DMSO control 0.251). For the same compound, the “Thiosulfate Peak Area” value is 37903 in assay [1] (10 μM ATG, 1% DMSO control 3466) and 3656 in assay [1] (No Stress, 1% DMSO control 2881). The “increase in thiosulfate, EPI-743 treated versus untreated cells” value in assay [1] (ATG-stressed cells (10 μM ATG), 100 nM EPI-743) is on record as “approximately 10 fold”. Moreover, the “effect on cysteine levels” value in assay [1] was “unaffected”.
